One series has as its system HL-60 cells. The series is described as follows: Induction of HL-60 Cell Differentiation (NBT reduction). Type of series: cell-based. The following applies: 3 days, relative to maximal differentiation with 100-1000 nM calcitriol, mean of 3 wells, 4320 min, read-out: ED50, concentration leading to 50% of maximal differentiation. The protocol: Induction of HL-60 Cell Differentiation
The induction of differentiation of HL-60 cells was assayed by measuring their oxidative burst potential via the reduction of nitrobluetetrazolium (NBT).
HL-60 cells (30,000 cells in 90 μl of supplemented RPMI medium) were seeded into flat-bottomed microliter wells. Immediately after seeding, 10 μl of test compounds listed below in Table II diluted in supplemented RPMI medium were added to the wells to yield final concentrations of between 10^-11 and 10^-6 M (starting from stock solutions of 10^-2 M in ethanol, stored at -20° C. and protected from light). After 3 days, medium was removed from the wells with a multichannel pipette and replaced with 100 μl of NBT solution (1 mg/ml in phosphate buffered saline with 200 nM phorbol myristate acetate). Following an additional hour incubation at 37° C. the NBT solution was removed and 100 μl of 10% sodium dodecyl sulfate in 0.01N HCl was added. The amount of the reduced NBT was quantified photometrically at 540 nm using an automated plate reader. The mean of 3 wells was calculated. […] Values were expressed as percent of maximal differentiation achieved with 100-1000 nM calcitriol in the same experiment.

In the next series the test system is Sebaceous cells. Briefly: Inhibition of Sebaceous Cell Proliferation. In kind it is cell-based, human. To be noted: read-out: ED50, amount of compound necessary to inhibit the proliferation of the sebaceous cells by 50%. The protocol: Inhibition of Sebaceous Cell Proliferation
Sebaceous cells were isolated from adult human sebaceous glands, derived from facial skin removed during cosmetic surgery. This method is described in an article by Doran et al. in J. Invest. Dermatol. 96:341-348 (1991).
The cells were cultured in Iscove's medium containing 10% fetal calf-serum and 4 μg/ml dexamethasone on a layer of growth-arrested 3T3 mouse fibroblasts.
Cells were plated in medium without the test compound and then given the compound in fresh medium 24-48 hours after the initial plating. The cultures were given fresh medium, containing the test compound, every 48 hours. On the day of harvesting, the cultures were rinsed with 0.03% ethylenediamine tetraacetic acid (EDTA) in phosphate buffered saline (PBS), to remove only the 3T3 fibroblasts. The remaining sebocyte colonies were incubated in 0.05% trypsin/0/03% EDTA to create a single cell suspension of sebocytes. The cells were suspended, mixed vigorously to prepare a single cell suspension, and counted in a hemocytometer.
All compounds were handled in the following manner. Stock solutions were made up as 10-^2 M solutions in degassed 100% ethanol and stored at -20° C. in the dark. Solutions were never used after storage of more than a month. During experimental use the solutions, which had been aliquoted, were thawed once and used by diluting directly into complete medium to the appropriate concentration.
The results are summarized in Table III below as the amount of compound necessary to inhibit the proliferation of the sebaceous cells by 50% (ED50) in μM as compared to a control, vehicle treated only, culture.

In series [1] the test system is γ-Interferon Release in Human T-cells. Briefly: Inhibition of γ-Interferon Release in Human T-cells (ELISA). Type of series: cell-based. The following applies: PHA-stimulated human lymphocytes, IFN-γ by ELISA, days 3 and 4, read-out: IC50, concentration leading to 50% of control values (IFN-γ). The protocol: Inhibition of γ-Interferon Release in Human T-cells
Mononuclear cells were isolated from venous blood of healthy donors by centrifugation of buffy coat leucocytes atop Ficoll-Paque. […] 100 μl of this cell suspension were seeded into flat-bottom microtiter wells and stimulated with 1 μg/ml of the T-cell specific mitogen phytohemagglutinine (PHA). Immediately after seeding, the test compounds listed below in Table IV were added to yield final concentrations of between 1×10^-11 M-1×10^-6 M. All tests were run in the quadruplicates.
On days 3 and 4, medium was removed from the wells and the content of IFN-γ was analyzed by ELISA. Values are expressed as percent of controls (samples without test compound).
On the technique in general: An ELISA detects its analyte on a solid surface through an enzyme-linked reagent.

The subject of a further series is Human T-cell. The series is described as follows: Inhibition of Human T-cell Proliferation (3H-thymidine). To be noted: PHA-stimulated human lymphocytes, 3H-thimidine after 3 and 4 days, read-out: IC50, concentration leading to 50% of control values (T-cell proliferation). Type of series: cell-based. The procedure:
Inhibition of Human T-cell Proliferation
Mononuclear cells were isolated from venous blood of healthy donors by centrifugation of buffy coat leucocytes atop Ficoll-Paque. […] of this cell suspension were seeded into flat-bottom microtiter wells and stimulated with […] of PHA. Immediately after seeding, the test compounds listed below in Table V were added to yield final concentrations of between 1×10^-11 M-1×10^-6 M. All tests were run in the quadruplicates.
After 3 and 4 days, ^3 H-thymidine (5 Ci/mmol) was added to wells at a concentration of […]. Cells were pulse-labeled for the last 6 hours of the growth period. Cells were then harvested on to a 96 well filter plate using a cell harvester. After drying at 40° C. under vacuum for 20-30 minutes, 20 μl of scintillor were added and the radioactivity bound to the filters was counted. Values are expressed as percent controls (samples without test compounds).

Series [2] is described as follows: Calcium tolerance test in mice. Type of series: in vivo. To be noted: daily subcutaneous, 4 consecutive days, dose giving zero weight gain during 5 day treatment period. An excerpt: Calcium tolerance test in mice
Profound changes in calcium homeostasis strongly affect the weight development of mice.
Mice (25-30 g body weight) received daily subcutaneous administrations of the compound for 4 consecutive days. Body weight was registered just before and at the end of a […] treatment period. The "highest tolerated dose" (HTD) is the dose which results in zero weight gain during this treatment period.

The subject of another series is HaCaT cell line. Briefly: Inhibition of Keratinocyte Proliferation (3H-thymidine uptake, HaCaT cells). Type of series: cell-based. The following applies: Homo sapiens, 3H-thymidine incorporation, 6 days, read-out: IC50, concentration leading to 50% of control values. (In general: Incorporation of labelled thymidine or its analogues reports DNA synthesis.)

Structures are written as SMILES. Read-outs that look alike come from different tables or passages of the source.

Take `C=C1/C(=C\C=C2/CCC[C@]3(C)C([C@H](C)C=C=CC(C)(C)O)=CC[C@@H]23)C[C@@H](O)C[C@@H]1O` [1,25-Dihydroxy-16,22R,23-triene-cholecalciferol]: the EC50 in the series with HL-60 cells worked out at 0.22 nM. The IC50 in the series with Sebaceous cells (adult human facial sebaceous cells, vs vehicle treated control, listed as 1α,25-Dihydroxy-16,22R,23-triene-cholecalciferol) turned out to be 1 nM; in series [1] it was 0.05 nM; in the series on Human T-cell, 0.55 nM. Moreover, the “HTD, highest tolerated dose” value in series [2] was determined as 0.0025 mg/kg.

Turning to `C=C1/C(=C\C=C2/CCC[C@]3(C)C([C@H](C)C=C=CC(C)(C)O)=CC[C@@H]23)C[C@@H](O)C[C@@H]1O` [1,25-Dihydroxy-16,22S,23-triene-cholecalciferol] [listing 1 of 2 here], the IC50 in the series with HaCaT cell line was 40 nM.

`C=C1/C(=C\C=C2/CCC[C@]3(C)C([C@H](C)C=C=CC(C)(C)O)=CC[C@@H]23)C[C@@H](O)C[C@@H]1O` [1,25-Dihydroxy-16,22S,23-triene-cholecalciferol] [listing 2 of 2 here]: in the series with HL-60 cells, the EC50 amounted to 4.8 nM. Further, the IC50 in the series on Sebaceous cells (adult human facial sebaceous cells, vs vehicle treated control, listed as 1α,25-Dihydroxy-16,22S,23-triene-cholecalciferol) came out at 10 nM; in series [1] it was 3 nM; in the series with Human T-cell, 6 nM. For the same compound, in series [2], the “HTD, highest tolerated dose” value came to 0.05 mg/kg.

As to `C=C1/C(=C\C=C2/CCC[C@]3(C)[C@@H]([C@H](C)CCCC(C)(C)O)CC[C@@H]23)C[C@@H](O)C[C@@H]1O` [1,25-Dihydroxy-cholecalciferol, reference compound], the IC50 amounted to 55 nM in the series with HaCaT cell line, 50 nM with Sebaceous cells (Homo sapiens), 0.8 nM in series [1] (T-cell) and 10 nM with Human T-cell (T-cell).
